Results from PubChem BioAssay (NCI).
“And” between values parts separate entries of the source, which are not always exact repeats. Equal values may be shown once.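 Test compounds were applied to cells in 96-well plates for 48 hours at 5 doses. Abbreviation: GI50, concentration required for 50% inhibition of growth. TGI: total growth inhibition.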

Columns and labels:
Assay in all cases: NCI-60 cell line screen, 48 h
HCT-15 colon = test system: HCT-15 colon
XF 498 CNS = test system: XF 498 CNS
DLD-1 colon = test system: DLD-1 colon
LXFL 529 NSCLC = test system: LXFL 529 NSCLC
MALME-3M melanoma = test system: MALME-3M melanoma
UACC-257 melanoma = test system: UACC-257 melanoma
SF-539 CNS = test system: SF-539 CNS
BT-549 breast = test system: BT-549 breast
HS 578T breast = test system: HS 578T breast
SNB-78 CNS = test system: SNB-78 CNS

CC(=O)Nc1ccc(S(=O)(=O)N/N=C/CN2C(=O)c3ccccc3C2=O)cc1
TGI (HCT-15 colon): > 100 µM
TGI (XF 498 CNS): > 100 µM
TGI (DLD-1 colon): > 100 µM
TGI (LXFL 529 NSCLC): > 100 µM
TGI (MALME-3M melanoma): > 100 µM
TGI (UACC-257 melanoma): > 100 µM
TGI (SF-539 CNS): > 100 µM

Cc1cc(NCCCN(C)C)c2ccc3c(ccc4c(NCCCN(C)C)cc(C)nc43)c2n1
GI50 (HCT-15 colon): 0.191 µM
TGI (HCT-15 colon): 0.543 µM
GI50 (MALME-3M melanoma): 0.244 µM
TGI (MALME-3M melanoma): 0.894 µM
GI50 (UACC-257 melanoma): 0.199 µM
TGI (UACC-257 melanoma): 0.499 µM
GI50 (BT-549 breast): 1.85 µM
TGI (BT-549 breast): 3.53 µM
GI50 (HS 578T breast): 0.197 µM
TGI (HS 578T breast): 0.667 µM
GI50 (SF-539 CNS): 0.193 µM
TGI (SF-539 CNS): 0.487 µM

O=C(C/C(=N/O)C(=O)NC1=C(Cl)C(=O)c2ccccc2C1=O)CC(c1ccccc1)c1c(O)c2ccccc2oc1=O (stereo unspecified)
TGI (HCT-15 colon): 14.4 µM
TGI (MALME-3M melanoma): 4.55 µM
TGI (UACC-257 melanoma): > 100 µM
TGI (BT-549 breast): > 100 µM
TGI (HS 578T breast): 50.6 µM
TGI (SF-539 CNS): 31.7 µM

O=C1OCC2=C1C(c1cccc(Cl)c1)c1cc3c(cc1N2CCO)OCCO3 (stereo unspecified)
GI50 (HCT-15 colon): 0.073 µM
TGI (HCT-15 colon): > 100 µM
GI50 (MALME-3M melanoma): 0.0551 µM
TGI (MALME-3M melanoma): > 100 µM
GI50 (UACC-257 melanoma): 0.0364 µM
TGI (UACC-257 melanoma): 28.2 µM
GI50 (BT-549 breast): 0.147 µM
TGI (BT-549 breast): 11.8 µM
GI50 (HS 578T breast): 0.0747 µM
TGI (HS 578T breast): > 78.2 µM
GI50 (SF-539 CNS): 0.0467 µM
TGI (SF-539 CNS): 0.975 µM

COc1cccc(N2C(=O)C3c4[nH]c5ccccc5c4C4CCCC4C3C2=O)c1 (stereo unspecified)
TGI (HCT-15 colon): > 10 µM
TGI (MALME-3M melanoma): 8.22 µM
TGI (UACC-257 melanoma): > 10 µM
TGI (BT-549 breast): > 10 µM
TGI (HS 578T breast): 8.91 µM
TGI (SF-539 CNS): > 10 µM

COc1cccc(-c2c[nH]c3c(N/N=C/c4ccncc4)ncnc23)c1
GI50 (HCT-15 colon): 1.46 µM
TGI (HCT-15 colon): > 25 µM
GI50 (MALME-3M melanoma): 8.58 µM
TGI (MALME-3M melanoma): 20.9 µM
GI50 (UACC-257 melanoma): 6.02 µM
TGI (UACC-257 melanoma): 17.5 µM
GI50 (BT-549 breast): 4.89 µM
TGI (BT-549 breast): 18.5 µM
GI50 (HS 578T breast): 0.816 µM
TGI (HS 578T breast): 9.97 µM
GI50 (SF-539 CNS): 1.56 µM
TGI (SF-539 CNS): 6.81 µM

C=C/C=C/NC(=O)OCc1ccccc1
TGI (SNB-78 CNS): > 100 µM
TGI (XF 498 CNS): > 100 µM
TGI (DLD-1 colon): > 100 µM
TGI (LXFL 529 NSCLC): > 100 µM
TGI (UACC-257 melanoma): > 100 µM

C[C@H]1CC[C@@]2(NC1)O[C@H]1C[C@H]3[C@@H]4CC[C@H]5C[C@@H](O)CC[C@]5(C)[C@H]4CC[C@]3(C)[C@H]1[C@@H]2C
GI50 (HCT-15 colon): 20.9 µM
TGI (HCT-15 colon): 50 µM and > 100 µM
GI50 (MALME-3M melanoma): 11.2 µM
TGI (MALME-3M melanoma): 31.5 µM
GI50 (UACC-257 melanoma): 22 µM
TGI (UACC-257 melanoma): 50 µM and > 100 µM
GI50 (BT-549 breast): 23.8 µM
TGI (BT-549 breast): 50 µM and > 100 µM
GI50 (HS 578T breast): 21.8 µM
TGI (HS 578T breast): 50 µM and > 100 µM
GI50 (SF-539 CNS): 13.8 µM
TGI (SF-539 CNS): 32.2 µM and > 100 µM

COc1cc2c[n+](C)c3c4cc(OC)c(OC(C)C)cc4ccc3c2cc1OC
TGI (SNB-78 CNS): > 100 µM
TGI (HCT-15 colon): > 100 µM
TGI (DLD-1 colon): > 100 µM
TGI (LXFL 529 NSCLC): 76.1 µM
TGI (MALME-3M melanoma): > 100 µM
TGI (UACC-257 melanoma): > 100 µM
TGI (SF-539 CNS): > 100 µM

COc1cc(OC)c(C/C=C/c2ccccc2)cc1O
TGI (HCT-15 colon): 30.1 µM
TGI (MALME-3M melanoma): 30.5 µM
TGI (UACC-257 melanoma): 55.6 µM
TGI (BT-549 breast): 29.6 µM
TGI (HS 578T breast): 47.3 µM
TGI (SF-539 CNS): 29.7 µM

C=CCN=C(N/N=C/c1ccc([N+](=O)[O-])o1)NS(=O)(=O)c1cc(C(=O)Nc2ccc(Cl)cc2)c(Cl)cc1SC
GI50 (HCT-15 colon): 2.97 µM
TGI (HCT-15 colon): 13.5 µM
GI50 (MALME-3M melanoma): 5.08 µM
TGI (MALME-3M melanoma): 63.4 µM
GI50 (UACC-257 melanoma): 4.28 µM
TGI (UACC-257 melanoma): > 59.9 µM
GI50 (BT-549 breast): 5.05 µM
TGI (BT-549 breast): > 79.7 µM
GI50 (HS 578T breast): > 41.9 µM
TGI (HS 578T breast): > 100 µM
GI50 (SF-539 CNS): 5.92 µM
TGI (SF-539 CNS): > 100 µM

COc1ccc2c(c1)C(=O)c1ccc(OC)cc1C2=S
TGI (SNB-78 CNS): > 100 µM
TGI (HCT-15 colon): > 100 µM
TGI (XF 498 CNS): > 100 µM
TGI (DLD-1 colon): > 100 µM
TGI (MALME-3M melanoma): > 100 µM
TGI (UACC-257 melanoma): > 100 µM
TGI (SF-539 CNS): > 100 µM

CC1=NN(C(=O)c2ccccc2O)C(=O)/C1=C/c1ccc(O)cc1
TGI (SNB-78 CNS): > 100 µM
TGI (HCT-15 colon): > 100 µM
TGI (DLD-1 colon): > 100 µM
TGI (LXFL 529 NSCLC): > 100 µM
TGI (MALME-3M melanoma): > 100 µM
TGI (UACC-257 melanoma): > 100 µM
TGI (BT-549 breast): > 100 µM
TGI (SF-539 CNS): 6.73 µM

CC[C@@]1(O)C(=O)OCc2c1cc1n(c2=O)Cc2cc3cc4c(cc3nc2-1)OCO4
TGI (HCT-15 colon): > 58.9 µM
GI50 (XF 498 CNS): 0.114 µM
TGI (XF 498 CNS): 0.461 µM and 0.657 µM
GI50 (DLD-1 colon): 0.112 µM
TGI (DLD-1 colon): > 100 µM
TGI (LXFL 529 NSCLC): 0.375 µM
GI50 (MALME-3M melanoma): < 0.0144 µM
TGI (UACC-257 melanoma): 0.345 µM and 0.259 µM
GI50 (HS 578T breast): > 100 µM
TGI (HS 578T breast): > 100 µM
TGI (SF-539 CNS): 0.0013 µM

CN1CCN(C(=O)C(C)(C)c2ccc(C(=O)Nc3cn4cc(-c5ccncc5)ccc4n3)cc2)CC1
GI50 (HCT-15 colon): 0.312 µM
TGI (HCT-15 colon): 7.2 µM
GI50 (MALME-3M melanoma): 0.26 µM
TGI (MALME-3M melanoma): 0.773 µM
GI50 (UACC-257 melanoma): 0.296 µM
TGI (UACC-257 melanoma): 15.1 µM
GI50 (BT-549 breast): 0.332 µM
TGI (BT-549 breast): 14.9 µM
GI50 (HS 578T breast): 0.327 µM
TGI (HS 578T breast): 3.66 µM
GI50 (SF-539 CNS): 0.246 µM
TGI (SF-539 CNS): 1.17 µM

NC(=O)N/N=C1/CCC(O)CC1CC(=O)O (stereo unspecified)
TGI (HCT-15 colon): > 100 µM
TGI (MALME-3M melanoma): > 100 µM
TGI (UACC-257 melanoma): > 100 µM
TGI (BT-549 breast): > 100 µM
TGI (HS 578T breast): > 100 µM
TGI (SF-539 CNS): > 100 µM
